Data published in ChEMBL document CHEMBL5543162, “Discovery of a Novel Orally Bioavailable FLT3-PROTAC Degrader for Efficient Treatment of Acute Myeloid Leukemia and Overcoming Resistance of FLT3 Inhibitors” (J Med Chem, 2024).
Active and inactive are the calls of the source. The calls are words filed in the database; no cut-off is given here.

Experiments:
[1] = Toxicity in nude mouse xenografted with human MV4-11 cells assessed as change in body weight at 120 mg/kg, po administered daily for 15 days; assay type: organism-based; conditions: in vivo, 360 h, time 15 day
[2] = Stability in dog liver microsomes assessed as intrinsic clearance; assay type: ADME, Canis lupus familiaris, Microsome; conditions: read-out: CLH
[3] = test system: Protein cereblon/Receptor-type tyrosine-protein kinase FLT3 (Homo sapiens), P36888+Q96SW2 [UNDEFINED MUTATION]; assay: PROTAC activity at CRBN/FLT3-ITD mutant in human MOLM-13 cells assessed as protein degradation at 20 nM by Western blot analysis; assay type: cell-based; conditions: time <= 12.0 hrs, TDE = time-dependent effect
[4] = Cmax in Sprague-Dawley rat at 10 mg/kg, po measured for 24 hrs by LC-MS/MS analysis; assay type: ADME, organism-based; conditions: in vivo
BaF3 = assay: Antiproliferative activity against mouse Ba/F3 cells expressing FLT3-ITD F691L mutant incubated for 48 hrs by CCK8 assay; assay type: functional, cell-based; conditions: BaF3, 48 h
[5] = Antiproliferative activity against human THP-1 cells expressing wild-type FLT3 incubated for 48 hrs by CCK8 assay; assay type: toxicity, cell-based
[6] = Stability in mouse liver microsomes assessed as half life; assay type: ADME, Microsome
[7] = Toxicity in nu/nu mouse xenografted with human MV4-11 cells assessed as damage in lung at 1.25 to 10 mg/kg, po administered daily for 2 weeks by H and E staining based analysis; assay type: organism-based; conditions: in vivo, 336 h, dose 1.25-10 mg/kg
[8] = test system: Protein cereblon/Receptor-type tyrosine-protein kinase FLT3 (Homo sapiens), P36888+Q96SW2 [UNDEFINED MUTATION]; assay: PROTAC activity at CRBN/FLT3-ITD mutant in human MV4-11 cells assessed as decrease in ERK level at 20 nM by Western blot analysis; assay type: cell-based; conditions: time <= 12.0 hrs, TDE = time-dependent effect
[9] = Toxicity in nu/nu mouse xenografted with human MV4-11 cells assessed as damage in kidney at 1.25 to 10 mg/kg, po administered daily for 2 weeks by H and E staining based analysis; assay type: organism-based; conditions: in vivo, 336 h, dose 1.25-10 mg/kg
MV4-11 [10] = assay: Antitumor activity against human MV4-11 cells xenografted in nu/nu mouse assessed as decrease in Ki67 level at 1.25 to 10 mg/kg, po administered daily for 2 weeks by IHC analysis; assay type: functional, organism-based; conditions: dose 1.25-10 mg/kg
[11] = test system: Protein cereblon/Receptor-type tyrosine-protein kinase FLT3 (Homo sapiens), P36888+Q96SW2 [UNDEFINED MUTATION]; assay: PROTAC activity at CRBN/FLT3-ITD mutant in human MOLM-13 cells assessed as decrease in ERK level at 20 nM by Western blot analysis; assay type: cell-based; conditions: time <= 12.0 hrs, TDE = time-dependent effect
MV4-11 [12] = assay: Antiproliferative activity against human MV4-11 cells expressing FLT3-ITD mutant incubated for 48 hrs by CCK8 assay; assay type: functional, cell-based; conditions: MV4-11, 48 h
[13] = Volume of distribution at steady state in Sprague-Dawley rat at 10 mg/kg, po measured for 24 hrs by LC-MS/MS analysis; assay type: ADME, organism-based; conditions: in vivo
[14] = Stability in human liver microsomes assessed as hepatic clearance; assay type: ADME, Microsome
[15] = test system: Protein cereblon/Receptor-type tyrosine-protein kinase FLT3 (Homo sapiens), P36888+Q96SW2 [UNDEFINED MUTATION]; assay: PROTAC activity at CRBN/FLT3-ITD mutant in human MV4-11 cells assessed as protein degradation at 100 nM incubated for 8 hrs in presence of bortezomib by Western blot analysis; assay type: cell-based
MOLM-13 [16] = assay: Antiproliferative activity against human MOLM-13 cells incubated for 48 hrs by CCK8 assay; assay type: functional, cell-based; conditions: MOLM-13, 48 h
[17] = test system: Protein cereblon/Receptor-type tyrosine-protein kinase FLT3 (Homo sapiens), P36888+Q96SW2 [UNDEFINED MUTATION]; assay: PROTAC activity at CRBN/FLT3-ITD mutant in membrane of human MV4-11 cells assessed as protein degradation at 100 nM measured after 24 hrs by immunofluorescence analysis
[18] = Half life in Sprague-Dawley rat at 10 mg/kg, po measured for 24 hrs by LC-MS/MS analysis; assay type: ADME, organism-based; conditions: in vivo
[19] = AUC (0 to t) in Sprague-Dawley rat at 1 mg/kg, iv measured for 24 hrs by LC-MS/MS analysis; assay type: ADME, organism-based; conditions: in vivo
[20] = Stability in mouse liver microsomes assessed as hepatic clearance; assay type: ADME, Microsome
MOLM-13 [21] = assay: Induction of cell cycle arrest at G1 phase in human MOLM-13 cells incubated for 24 hrs by PI/RNase staining based flow cytometry; assay type: functional; conditions: dose 1-50 nM
MV4-11 [22] = assay: Antitumor activity against human MV4-11 cells expressing luciferase xenografted in NSG mouse assessed as increase in animal survival at 5 mg/kg, po administered daily for 3 weeks and measured for 66 days; assay type: functional, organism-based; conditions: time 66.0 day
[23] = test system: Protein cereblon/Receptor-type tyrosine-protein kinase FLT3 (Homo sapiens), P36888+Q96SW2 [UNDEFINED MUTATION]; assay: PROTAC activity at CRBN/FLT3-ITD mutant in human MV4-11 cells assessed as decrease in S6K level incubated for 12 hrs by Western blot analysis; assay type: cell-based; conditions: dose <= 20.0 nM
[24] = Toxicity in nu/nu mouse xenografted with human MV4-11 cells assessed as change in body weight at 1.25 to 10 mg/kg, po administered daily for 2 weeks; assay type: organism-based; conditions: in vivo, 336 h, dose 1.25-10 mg/kg
[25] = test system: Protein cereblon/Receptor-type tyrosine-protein kinase FLT3 (Homo sapiens), P36888+Q96SW2 [UNDEFINED MUTATION]; assay: PROTAC activity at CRBN/FLT3-ITD mutant in human MOLM-13 cells assessed as protein degradation at 100 nM incubated for 8 hrs in presence of bortezomib by Western blot analysis; assay type: cell-based
[26] = test system: Protein cereblon/Receptor-type tyrosine-protein kinase FLT3 (Homo sapiens), P36888+Q96SW2 [UNDEFINED MUTATION]; assay: PROTAC activity at CRBN/FLT3-ITD mutant in human MOLM-13 cells assessed as protein degradation incubated for 12 hrs by Western blot analysis; assay type: cell-based; conditions: dose <= 20.0 nM
Cytochrome P450 1A2 = target: T1, Cytochrome P450 1A2 (Homo sapiens, UniProt P05177); assay: Inhibition of CYP1A2 (unknown origin); assay type: ADME
T1 sequence (P05177 whole entry): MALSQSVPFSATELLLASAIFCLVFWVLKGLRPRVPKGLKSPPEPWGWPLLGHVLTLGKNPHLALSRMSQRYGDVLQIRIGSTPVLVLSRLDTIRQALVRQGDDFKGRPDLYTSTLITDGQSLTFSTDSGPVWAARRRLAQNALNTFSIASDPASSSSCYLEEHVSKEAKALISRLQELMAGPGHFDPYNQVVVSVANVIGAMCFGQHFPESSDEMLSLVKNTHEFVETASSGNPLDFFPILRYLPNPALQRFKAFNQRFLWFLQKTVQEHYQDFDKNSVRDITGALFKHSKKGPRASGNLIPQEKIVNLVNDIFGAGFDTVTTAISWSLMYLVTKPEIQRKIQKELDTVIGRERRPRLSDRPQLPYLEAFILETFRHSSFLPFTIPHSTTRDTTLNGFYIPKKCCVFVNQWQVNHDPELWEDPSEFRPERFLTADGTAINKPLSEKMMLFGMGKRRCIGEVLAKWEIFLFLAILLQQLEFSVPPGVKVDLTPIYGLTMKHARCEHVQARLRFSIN

MV4-11 [27] = assay: Antitumor activity against human MV4-11 cells expressing luciferase xenografted in NSG mouse assessed as increase in animal survival at 10 mg/kg, po administered daily for 3 weeks and measured for 77 days; assay type: functional, organism-based; conditions: time 77.0 day
[28] = test system: Protein cereblon/Receptor-type tyrosine-protein kinase FLT3 (Homo sapiens), P36888+Q96SW2 [UNDEFINED MUTATION]; assay: PROTAC activity at CRBN/FLT3-ITD mutant in human MV4-11 cells assessed as decrease in ERK level incubated for 12 hrs by Western blot analysis; assay type: cell-based; conditions: dose <= 20.0 nM
[29] = Toxicity in nu/nu mouse xenografted with human MV4-11 cells assessed as damage in liver at 1.25 to 10 mg/kg, po administered daily for 2 weeks by H and E staining based analysis; assay type: organism-based; conditions: in vivo, 336 h, dose 1.25-10 mg/kg
Cytochrome P450 2C19 = Cytochrome P450 2C19 (Homo sapiens, UniProt P33261); assay: Inhibition of CYP2C19 (unknown origin); assay type: ADME
MV4-11 [30] = assay: Induction of apoptosis in human MV4-11 cells incubated for 24 hrs by Annexin V-FITC/PI staining based flow cytometry; assay type: functional, cell-based; conditions: dose 25-100 nM

Sequence of Protein cereblon/Receptor-type tyrosine-protein kinase FLT3 (Homo sapiens), P36888+Q96SW2 [UNDEFINED MUTATION] (P36888 whole entry, looked up, stated change not applied): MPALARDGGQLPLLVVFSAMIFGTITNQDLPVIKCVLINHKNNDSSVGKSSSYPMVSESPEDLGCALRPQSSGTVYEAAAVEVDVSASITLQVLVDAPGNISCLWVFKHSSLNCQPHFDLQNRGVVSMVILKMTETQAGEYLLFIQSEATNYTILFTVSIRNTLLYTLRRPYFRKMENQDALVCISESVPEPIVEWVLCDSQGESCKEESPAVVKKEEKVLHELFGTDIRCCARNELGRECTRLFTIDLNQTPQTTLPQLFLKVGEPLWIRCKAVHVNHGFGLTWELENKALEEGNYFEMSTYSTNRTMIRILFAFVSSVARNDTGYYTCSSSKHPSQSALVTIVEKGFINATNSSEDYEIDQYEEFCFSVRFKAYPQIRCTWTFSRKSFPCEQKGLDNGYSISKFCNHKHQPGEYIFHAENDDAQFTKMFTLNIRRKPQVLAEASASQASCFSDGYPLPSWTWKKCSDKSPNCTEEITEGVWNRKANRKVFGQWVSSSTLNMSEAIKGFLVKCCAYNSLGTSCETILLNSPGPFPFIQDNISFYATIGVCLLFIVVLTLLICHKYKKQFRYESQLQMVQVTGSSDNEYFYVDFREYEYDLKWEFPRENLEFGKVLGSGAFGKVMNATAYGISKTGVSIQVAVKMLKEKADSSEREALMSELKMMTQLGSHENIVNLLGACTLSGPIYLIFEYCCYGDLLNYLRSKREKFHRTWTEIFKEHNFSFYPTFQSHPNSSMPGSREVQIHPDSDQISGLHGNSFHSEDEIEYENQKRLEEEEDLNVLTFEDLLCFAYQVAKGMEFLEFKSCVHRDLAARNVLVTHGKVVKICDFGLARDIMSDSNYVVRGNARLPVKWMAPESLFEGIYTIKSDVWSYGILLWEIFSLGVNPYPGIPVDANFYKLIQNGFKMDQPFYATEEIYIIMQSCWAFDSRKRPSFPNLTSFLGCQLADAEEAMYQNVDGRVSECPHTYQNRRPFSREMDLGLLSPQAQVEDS
Sequence of Protein cereblon/Receptor-type tyrosine-protein kinase FLT3 (Homo sapiens), P36888+Q96SW2 [UNDEFINED MUTATION] (Q96SW2 whole entry, looked up, stated change not applied): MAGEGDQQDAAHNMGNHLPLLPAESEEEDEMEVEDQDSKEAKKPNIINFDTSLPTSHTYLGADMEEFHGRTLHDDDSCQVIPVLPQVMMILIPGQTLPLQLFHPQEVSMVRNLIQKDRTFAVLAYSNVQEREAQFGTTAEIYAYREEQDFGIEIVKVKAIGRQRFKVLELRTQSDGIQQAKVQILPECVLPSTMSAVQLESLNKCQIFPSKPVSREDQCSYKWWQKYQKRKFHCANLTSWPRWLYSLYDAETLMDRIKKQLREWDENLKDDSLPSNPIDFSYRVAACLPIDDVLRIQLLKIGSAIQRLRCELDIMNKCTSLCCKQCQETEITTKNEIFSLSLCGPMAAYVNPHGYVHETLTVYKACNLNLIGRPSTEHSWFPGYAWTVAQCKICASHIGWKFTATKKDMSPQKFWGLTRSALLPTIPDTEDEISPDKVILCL
Sequence of Cytochrome P450 2C19 (P33261 whole entry): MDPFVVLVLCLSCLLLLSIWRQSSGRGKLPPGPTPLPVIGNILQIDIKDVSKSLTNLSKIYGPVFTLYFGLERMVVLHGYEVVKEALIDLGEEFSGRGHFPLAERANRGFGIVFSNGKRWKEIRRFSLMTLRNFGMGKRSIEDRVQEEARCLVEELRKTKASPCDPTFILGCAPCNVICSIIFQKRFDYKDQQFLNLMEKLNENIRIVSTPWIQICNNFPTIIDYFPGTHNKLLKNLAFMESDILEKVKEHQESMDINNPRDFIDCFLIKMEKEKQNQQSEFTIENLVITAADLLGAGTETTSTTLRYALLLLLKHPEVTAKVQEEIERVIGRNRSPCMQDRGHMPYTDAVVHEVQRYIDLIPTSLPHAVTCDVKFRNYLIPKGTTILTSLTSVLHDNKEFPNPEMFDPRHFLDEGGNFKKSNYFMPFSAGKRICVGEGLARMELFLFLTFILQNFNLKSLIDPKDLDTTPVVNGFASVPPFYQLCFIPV

SMILES: Cc1c(NC(=O)CN2CCN(CC3CCN(c4ccc5c(c4)C(=O)N(C4CCC(=O)NC4=O)C5=O)CC3)CC2)c[nH]c1/C=C1\C(=O)Nc2ccc(F)cc21 (stereo not drawn)
- Activity [1]: Non-Toxic
- CLint scaled [2]: 17.7 mL/min/kg
- Activity [3]: Tde
- Cmax [4]: 1120 ng/mL
- IC50 (BaF3): 66.2 nM
- IC50 at 48 h [5]: 15.1 µM
- half-life [6]: 58.9 min
- Activity [7]: Non-Toxic
- Activity [8]: Tde
- Activity [9]: Non-Toxic
- Activity (MV4-11 [10]): Active
- Activity [11]: Tde
- IC50 (MV4-11 [12]): 39.9 nM
- Vdss [13]: 5.7 L/kg
- CLhep predicted [14]: 10.9 mL/min/kg
- Activity [15]: inactive
- IC50 (MOLM-13 [16]): 170 nM
- Activity [17]: Active
- half-life [18]: 228 min
- AUC(0-t) at 24 h [19]: 2770 ng·h/mL
- CLhep predicted [20]: 45.7 mL/min/kg
- Activity (MOLM-13 [21]): Dose-Dependent Effect
- Activity (MV4-11 [22]): Active
- Activity [23]: Dose-Dependent Effect
- Activity [24]: Non-Toxic
- Activity [25]: inactive
- Activity [26]: Dose-Dependent Effect
- IC50 (Cytochrome P450 1A2): > 50 µM
- Activity (MV4-11 [27]): Active
- Activity [28]: Dose-Dependent Effect
- Activity [29]: Non-Toxic
- IC50 (Cytochrome P450 2C19): > 50 µM
- Activity (MV4-11 [30]): Dose-Dependent Effect
